A word on the IC50: it is the concentration needed to halve the response being measured. Read a low IC50 as greater potency.

The values that follow come from publication PMC6887723, “Design and Synthesis of 4-(Heterocyclic Substituted Amino)-1H-Pyrazole-3-Carboxamide Derivatives and Their Potent Activity against Acute Myeloid Leukemia (AML)” (International Journal of Molecular Sciences, 2019).

Structures are written as SMILES.

One assay has as its target T1, CDK3/cyclin E (Homo sapiens, UniProt Q00526).
T1 construct: purchased Reaction Biology Corp
Nature of the assay: Hot-Spot kinase profiling. Type of assay: biochemical. The procedure: (§1) Activities of kinases were determined using Hot-SpotSM kinase assay which was performed by Reaction Biology Corp. (Malvern PA, USA) as described previously.

The next assay concerns the target T2, CDK1/cyclin B (Homo sapiens, UniProt P06493).
T2 construct: purchased Reaction Biology Corp
Briefly: Hot-Spot kinase profiling. Type of assay: biochemical. How it is done: as §1

The target of the next assay is T3, CDK2 (Homo sapiens, UniProt P24941).
T3 construct: purchased Reaction Biology Corp
Briefly: CDK2 kinase activity assay (Hot-Spot). Type of assay: biochemical. Particulars: 10 μM ATP; mean ± SD, three independent experiments. How it is done: as §1

For assay [1], the system named is phosphorylation of STAT5/AKT/ERK. Briefly: Western blot, phosphorylation of STAT5/AKT/ERK in MV4-11 cells. Type of assay: cell-based, human. The conditions noted are these: MV4-11, 4 h, 1 μM. The procedure: Analysis of pFLT3, pSTAT5, pERK, pAKT, and pRb in vitro: to determine the levels of pFLT3, pSTAT5, pERK, pAKT, and pRb, cells were seeded in a 6-well cell culture plate at a density of 400,000 cells per well for MV4-11 in a total volume of 1800 μL and incubated overnight in medium containing 10% fetal bovine serum (Life Technologies, Rockville, MD, USA). Then 200 μL of serially diluted compounds were added to each well the next day. Cell lysates were harvested after 4 h and pFLT3, pSTAT5, pERK, pAKT, or pRb were quantified using assay kits for FLT3/Phospho-FLT3Tyr589/591, pSTAT5 (Tyr694)/total STAT5, pRb (Ser807)/total Rb (Nanjin keyGen Biotech Company, Nanjing, China) following the manufacturer’s protocols.
On the technique in general: A western blot detects proteins with antibodies after separation by electrophoresis.

T2 sequence (P06493 whole entry): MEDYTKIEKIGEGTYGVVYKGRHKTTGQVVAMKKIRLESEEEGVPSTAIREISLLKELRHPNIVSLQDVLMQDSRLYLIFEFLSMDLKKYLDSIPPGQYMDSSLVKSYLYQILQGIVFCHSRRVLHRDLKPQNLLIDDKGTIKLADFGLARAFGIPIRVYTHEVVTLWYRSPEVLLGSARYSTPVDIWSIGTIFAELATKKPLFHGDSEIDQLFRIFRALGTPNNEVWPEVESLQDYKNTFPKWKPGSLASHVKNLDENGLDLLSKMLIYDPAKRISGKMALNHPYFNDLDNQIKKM
T2 sequence (P14635 whole entry partner): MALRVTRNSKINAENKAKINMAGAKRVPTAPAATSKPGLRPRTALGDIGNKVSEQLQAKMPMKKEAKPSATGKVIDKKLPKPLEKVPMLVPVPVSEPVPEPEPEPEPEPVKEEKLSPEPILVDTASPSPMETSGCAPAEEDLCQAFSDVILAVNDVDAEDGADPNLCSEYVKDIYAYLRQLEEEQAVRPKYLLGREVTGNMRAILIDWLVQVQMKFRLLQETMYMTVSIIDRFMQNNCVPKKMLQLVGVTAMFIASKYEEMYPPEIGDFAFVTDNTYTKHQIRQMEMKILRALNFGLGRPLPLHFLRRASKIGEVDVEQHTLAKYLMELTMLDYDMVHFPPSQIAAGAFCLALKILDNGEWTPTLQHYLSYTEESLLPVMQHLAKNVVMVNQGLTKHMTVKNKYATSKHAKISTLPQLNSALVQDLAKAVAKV
T1 sequence (Q00526 whole entry): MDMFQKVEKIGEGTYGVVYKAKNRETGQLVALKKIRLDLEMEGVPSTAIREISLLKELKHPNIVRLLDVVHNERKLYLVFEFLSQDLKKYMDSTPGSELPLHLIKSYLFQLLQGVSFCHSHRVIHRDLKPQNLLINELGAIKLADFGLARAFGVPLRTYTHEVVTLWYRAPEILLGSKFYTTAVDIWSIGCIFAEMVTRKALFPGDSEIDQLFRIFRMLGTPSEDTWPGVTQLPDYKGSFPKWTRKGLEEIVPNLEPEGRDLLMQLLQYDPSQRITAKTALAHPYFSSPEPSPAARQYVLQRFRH
T1 sequence (P24864 whole entry partner): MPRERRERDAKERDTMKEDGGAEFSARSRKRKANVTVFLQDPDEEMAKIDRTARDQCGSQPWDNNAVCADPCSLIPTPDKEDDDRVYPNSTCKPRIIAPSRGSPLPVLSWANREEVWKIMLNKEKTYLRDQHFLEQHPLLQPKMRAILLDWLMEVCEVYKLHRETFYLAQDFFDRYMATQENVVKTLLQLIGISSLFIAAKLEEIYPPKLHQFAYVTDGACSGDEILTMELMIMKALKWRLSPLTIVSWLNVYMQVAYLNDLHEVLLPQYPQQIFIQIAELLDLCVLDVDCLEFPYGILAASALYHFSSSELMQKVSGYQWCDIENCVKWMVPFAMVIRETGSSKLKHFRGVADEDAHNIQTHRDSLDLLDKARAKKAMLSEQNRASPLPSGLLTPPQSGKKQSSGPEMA

With `O=C(Nc1ccc(N2CCNCC2)cc1)c1n[nH]cc1Nc1ncnc2sc3c(c12)CCC3` [Compound 8t], the remaining activity at 0.15 µM on CDK3/cyclin E (0.15 μM, read-out: % Enzyme Activity (Relative to DMSO Controls) CDK3/cyclin E) amounted to 5.94%; at CDK1/cyclin B (0.15 μM, read-out: % Enzyme Activity (Relative to DMSO Controls) CDK1/cyclin B), 18.2%. Besides, the IC50 came to 6.88 ± 0.25 nM on CDK3/cyclin E (Table 5 kinase profiling), 138 ± 1.24 nM against CDK1/cyclin B (Table 5 kinase profiling) and 0.719 ± 0.064 nM on CDK2. In addition, the “phosphorylation of STAT5/AKT/ERK” value in assay [1] is on record as “completely blocked”.
